Assay results: PubChem BioAssay (NCI)
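Test compounds were applied to cells in 96-well plates for 48 hours at 5 doses. At the GI50, growth is halved. TGI: total growth inhibition.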

How the values were obtained:
Experiment in all cases: DTP human tumour cell line panel, 48 h
HS 578T breast = system: HS 578T breast
KM12 colon = system: KM12 colon
NCI-H226 lung = system: NCI-H226 lung
NCI-H23 lung = system: NCI-H23 lung
DU-145 prostate = system: DU-145 prostate
SNB-19 CNS = system: SNB-19 CNS
MCF7 breast = system: MCF7 breast
RPMI-8226 leukemia = system: RPMI-8226 leukemia
HCT-15 colon = system: HCT-15 colon
HOP-62 NSCLC = system: HOP-62 NSCLC
OVCAR-4 ovarian = system: OVCAR-4 ovarian
SF-539 CNS = system: SF-539 CNS
SNB-75 CNS = system: SNB-75 CNS
OVCAR-8 ovarian = system: OVCAR-8 ovarian
MDA-MB-231 breast = system: MDA-MB-231 breast
786-0 renal = system: 786-0 renal
NCI/ADR-RES ovarian = system: NCI/ADR-RES ovarian
NCI-H460 lung = system: NCI-H460 lung
MALME-3M melanoma = system: MALME-3M melanoma
SK-MEL-28 melanoma = system: SK-MEL-28 melanoma
PC-3 prostate = system: PC-3 prostate
HT29 colon = system: HT29 colon
COLO 205 colon = system: COLO 205 colon
OVCAR-3 ovarian = system: OVCAR-3 ovarian
NCI-H522 lung = system: NCI-H522 lung
LOX IMVI melanoma = system: LOX IMVI melanoma
SR leukemia = system: SR leukemia
A498 renal = system: A498 renal
EKVX NSCLC = system: EKVX NSCLC
K-562 leukemia = system: K-562 leukemia
UACC-62 melanoma = system: UACC-62 melanoma
U251 CNS = system: U251 CNS
OVCAR-5 ovarian = system: OVCAR-5 ovarian
CCRF-CEM leukemia = system: CCRF-CEM leukemia
HCT-116 colon = system: HCT-116 colon
MOLT-4 leukemia = system: MOLT-4 leukemia
UO-31 renal = system: UO-31 renal
SF-268 CNS = system: SF-268 CNS
SW-620 colon = system: SW-620 colon
SK-MEL-2 melanoma = system: SK-MEL-2 melanoma
HCC-2998 colon = system: HCC-2998 colon
SK-OV-3 ovarian = system: SK-OV-3 ovarian
ACHN renal = system: ACHN renal
SF-295 CNS = system: SF-295 CNS
CAKI-1 renal = system: CAKI-1 renal
IGROV1 ovarian = system: IGROV1 ovarian
BT-549 breast = system: BT-549 breast
M14 melanoma = system: M14 melanoma
SK-MEL-5 melanoma = system: SK-MEL-5 melanoma
SN12C renal = system: SN12C renal
RXF 393 renal = system: RXF 393 renal
MDA-MB-435 = system: MDA-MB-435
A549 NSCLC = system: A549 NSCLC
UACC-257 melanoma = system: UACC-257 melanoma
HL-60(TB) leukemia = system: HL-60(TB) leukemia
HOP-92 NSCLC = system: HOP-92 NSCLC
TK-10 renal = system: TK-10 renal
T-47D breast = system: T-47D breast

SMILES: COc1cccc(/C=N\NC(=O)c2ccncc2)c1O
- GI50 (HS 578T breast): > 100 µM
- TGI (HS 578T breast): > 100 µM
- GI50 (KM12 colon): 6.06 µM
- TGI (KM12 colon): > 100 µM
- GI50 (NCI-H226 lung): 10.4 µM
- TGI (NCI-H226 lung): > 100 µM
- GI50 (NCI-H23 lung): 5.28 µM
- TGI (NCI-H23 lung): > 100 µM
- GI50 (DU-145 prostate): 5.13 µM
- TGI (DU-145 prostate): > 100 µM
- GI50 (SNB-19 CNS): 6.72 µM
- TGI (SNB-19 CNS): > 100 µM
- GI50 (MCF7 breast): 6.27 µM
- TGI (MCF7 breast): > 100 µM
- GI50 (RPMI-8226 leukemia): 5.48 µM
- TGI (RPMI-8226 leukemia): > 100 µM
- GI50 (HCT-15 colon): 2.87 µM
- TGI (HCT-15 colon): > 100 µM
- GI50 (HOP-62 NSCLC): 5.36 µM
- TGI (HOP-62 NSCLC): > 100 µM
- GI50 (OVCAR-4 ovarian): 2.43 µM
- TGI (OVCAR-4 ovarian): > 100 µM
- GI50 (SF-539 CNS): 6.07 µM
- TGI (SF-539 CNS): > 100 µM
- GI50 (SNB-75 CNS): 47.6 µM
- TGI (SNB-75 CNS): > 100 µM
- GI50 (OVCAR-8 ovarian): 4.54 µM
- TGI (OVCAR-8 ovarian): > 100 µM
- GI50 (MDA-MB-231 breast): 7.61 µM
- TGI (MDA-MB-231 breast): > 100 µM
- GI50 (786-0 renal): 3.53 µM
- TGI (786-0 renal): 30.6 µM
- GI50 (NCI/ADR-RES ovarian): 2.84 µM
- TGI (NCI/ADR-RES ovarian): > 100 µM
- GI50 (NCI-H460 lung): 3.63 µM
- TGI (NCI-H460 lung): > 100 µM
- GI50 (MALME-3M melanoma): 6.62 µM
- TGI (MALME-3M melanoma): 88.3 µM
- GI50 (SK-MEL-28 melanoma): 19.1 µM
- TGI (SK-MEL-28 melanoma): > 100 µM
- GI50 (PC-3 prostate): 8.01 µM
- TGI (PC-3 prostate): > 100 µM
- GI50 (HT29 colon): 21.5 µM
- TGI (HT29 colon): > 100 µM
- GI50 (COLO 205 colon): 4.9 µM
- TGI (COLO 205 colon): > 100 µM
- GI50 (OVCAR-3 ovarian): 4.61 µM
- TGI (OVCAR-3 ovarian): > 100 µM
- GI50 (NCI-H522 lung): 3.24 µM
- TGI (NCI-H522 lung): > 100 µM
- GI50 (LOX IMVI melanoma): 2.2 µM
- TGI (LOX IMVI melanoma): > 100 µM
- GI50 (SR leukemia): 2.98 µM
- TGI (SR leukemia): > 100 µM
- GI50 (A498 renal): 51.1 µM
- TGI (A498 renal): > 100 µM
- GI50 (EKVX NSCLC): 6.78 µM
- TGI (EKVX NSCLC): > 100 µM
- GI50 (K-562 leukemia): 13.7 µM
- TGI (K-562 leukemia): > 100 µM
- GI50 (UACC-62 melanoma): 3.62 µM
- TGI (UACC-62 melanoma): 34.6 µM
- GI50 (U251 CNS): 2.95 µM
- TGI (U251 CNS): > 100 µM
- GI50 (OVCAR-5 ovarian): 12.9 µM
- TGI (OVCAR-5 ovarian): > 100 µM
- GI50 (CCRF-CEM leukemia): 1.86 µM
- TGI (CCRF-CEM leukemia): > 100 µM
- GI50 (HCT-116 colon): 3.47 µM
- TGI (HCT-116 colon): > 100 µM
- GI50 (MOLT-4 leukemia): 3.04 µM
- TGI (MOLT-4 leukemia): > 100 µM
- GI50 (UO-31 renal): 2.36 µM
- TGI (UO-31 renal): 56.8 µM
- GI50 (SF-268 CNS): 3.47 µM
- TGI (SF-268 CNS): > 100 µM
- GI50 (SW-620 colon): 7.48 µM
- TGI (SW-620 colon): > 100 µM
- GI50 (SK-MEL-2 melanoma): 53.2 µM
- TGI (SK-MEL-2 melanoma): > 100 µM
- GI50 (HCC-2998 colon): 4.73 µM
- TGI (HCC-2998 colon): > 100 µM
- GI50 (SK-OV-3 ovarian): 6.45 µM
- TGI (SK-OV-3 ovarian): > 100 µM
- GI50 (ACHN renal): 2.96 µM
- TGI (ACHN renal): > 100 µM
- GI50 (SF-295 CNS): 3.35 µM
- TGI (SF-295 CNS): 71.2 µM
- GI50 (CAKI-1 renal): 1.88 µM
- TGI (CAKI-1 renal): 17.6 µM
- GI50 (IGROV1 ovarian): 6.98 µM
- TGI (IGROV1 ovarian): > 100 µM
- GI50 (BT-549 breast): 4.48 µM
- TGI (BT-549 breast): 68.3 µM
- GI50 (M14 melanoma): 4.68 µM
- TGI (M14 melanoma): > 100 µM
- GI50 (SK-MEL-5 melanoma): 6.29 µM
- TGI (SK-MEL-5 melanoma): 29 µM
- GI50 (SN12C renal): 8.41 µM
- TGI (SN12C renal): > 100 µM
- GI50 (RXF 393 renal): 5.49 µM
- TGI (RXF 393 renal): > 100 µM
- GI50 (MDA-MB-435): 19.2 µM
- TGI (MDA-MB-435): > 100 µM
- GI50 (A549 NSCLC): 11 µM
- TGI (A549 NSCLC): > 100 µM
- GI50 (UACC-257 melanoma): 5 µM
- TGI (UACC-257 melanoma): > 100 µM
- GI50 (HL-60(TB) leukemia): 2.27 µM
- TGI (HL-60(TB) leukemia): 8.73 µM
- GI50 (HOP-92 NSCLC): 3.16 µM
- TGI (HOP-92 NSCLC): > 100 µM
- GI50 (TK-10 renal): 4.78 µM
- TGI (TK-10 renal): > 100 µM
- GI50 (T-47D breast): 3.46 µM
- TGI (T-47D breast): > 100 µM
